In US20250318525A1, “COMPOSITIONS TO CONTROL THE RELEASE RATES OF CHEMICAL PESTICIDES” (priority 2020, published 2025):
In brackets after ≈: the same amount, converted by molar mass. Read-outs that look alike come from different tables or passages of the source.

Assays:
physchem = conditions: water
[1] = 2,4D release from tablets containing preformed 2,4D complexes (Examples 8, 10, 11); format: physicochemical; conditions: 20% 2,4D tablets in silt, 1 L deionized water, 20° C., 60 rpm, FIGS. 16, 18, 19
Experimental: The resulting solids were filtered and resuspended in deionized water with stirring for 15 min., then filtered again. The solids were dried to constant mass in a food dehydrator 120° F.
The resulting tablets were immersed in 1 L of deionized water at 20° C. and stirred at 60 rpm for the designated time period.

[2] = Benzoic acid release from benzoic acid salt tablets (Example 21); format: physicochemical; conditions: 1 L stirred deionized water, room temperature, FIG. 30
Experimental: Benzoic acid (BA) is a structural analogue to dicamba with its carboxylic acid in the benzyl position. BA salts were prepared by mixing a stoichiometric amount of metal hydroxide with benzoic acid in deionized water for a minimum of 12 hours. The resulting solids were filtered out of solution and dried in a dehydrator for 12 hours at 120° F. These were then blended with silt in a mortar and pestle and pressed on a desktop tablet press into 6 mm tablets (average tablet weight 0.093 g).
• A. 0.1 g BA, 0.4 g silt • B. 0.1 g Mg(BA)2, 0.4 g silt • C. 0.1 g Ca(BA)2, 0.4 g silt • D. 0.1 g Cu(BA)2, 0.4 g silt • E. 0.1 g Na benzoate, 0.4 g silt
These tablets were immersed in 1 L, stirred (60 rpm), room temperature, deionized water with two tablets per jar. […] A trend can be expected, but not predicted. Based on this, a trend could also be expected when dicamba is paired with metal ions.

[3] = Terrestrial sand bed with 2,4D salts and modeled rain events (Example 24); format: physicochemical; conditions: 7×200 mL flushes of deionized water, FIG. 33
Experimental: 200 mL of sand was layered in a Buchner funnel with filter paper. 2,4D salts were blended with 5.0 g of sand, and layered atop the 200 mL sand bed and exposed to 7×200 mL flushes of deionized water. 2,4D concentration was measured in the flush water to study how the associated metal impacted how rapidly 2,4D was lost from the surface.
In a terrestrial application, 2,4D lost from the surface would no longer be available to treat the target plant.

[4] = as listed in FIG. 36
[5] = TFM release when paired with bases of increasing solubility; format: physicochemical
Text: If a weak base is paired with the TFM, the solubilization of TFM can be controlled by the basicity and/or the solubility of the weak base.

[6] = Release from dual active tablets, copper-endothall salt and Mg(triclopyr)2 or Ca(triclopyr)2 (Example 19); format: physicochemical; conditions: tablets with Mg(triclopyr)2 or Ca(triclopyr)2, 1 L stirred deionized water, both formulations, FIG. 28
Experimental: Formulations were prepared with 33 weight percent each of copper-endothall salt, Mg(triclopyr)2 or Ca(triclopyr)2 salt, and silt. Formulations were mixed using a blender and then pressed into 6 mm tablets (average weight of 0.082 g/tablet) using a desktop tablet press.
• A. 0.5 g Endothall (Cu), 0.5 g triclopyr (Ca), 0.5 g silt • B. 0.5 g Endothall (Cu), 0.5 g triclopyr (Mg), 0.5 g silt
(§1) The resulting tablets were immersed in 1 L of stirred deionized water (60 rpm). […] The copper endothall salt portion of the formulation releases rapidly within 24 hours for both formulations.

[7] = Release from dual active tablets, copper-endothall salt and Mg(2,4D)2 or Ca(2,4D)2 (Example 18); format: physicochemical; conditions: tablets with Mg(2,4D)2 or Ca(2,4D)2, 1 L stirred deionized water, both formulations, FIG. 27
Experimental: Formulations were mixed using a blender and then pressed into 6 mm tablets (average weight of 0.082 g/tablet) using a desktop tablet press. Exact Formulations: • A. 0.5 g Endothall (Cu), 0.5 g 2,4D (Ca), 0.5 g silt • B. 0.5 g Endothall (Cu), 0.5 g 2,4D (Mg), 0.5 g silt
as §1

Compound: O=C(O)COc1ccc(Cl)cc1Cl [2,4D, 2,4-dichlorophenoxyacetic acid, reference compound]
- solubility (physchem): 740 µg/mL (≈ 3.35 mM)
- 2,4D release rate, comparison [1]: releases significantly faster than the Ca(2,4D)2

Compound: O=C(O)COc1ccc(Cl)cc1Cl [Ca(2,4D)2]
- 2,4D release rate, comparison ([1]; listed as premade calcium complex): not significantly slower

Compound: O=C([O-])c1ccccc1.O=C([O-])c1ccccc1.[Ca+2] [Ca(BA)2]
- benzoic acid release rate, comparison [2]: releases significantly faster than BA

Compound: O=C([O-])COc1ccc(Cl)cc1Cl.O=C([O-])COc1ccc(Cl)cc1Cl.[Cu+2] [Cu(2,4D)2]
- tolerance of 2,4D salt on sand bed to water flushes [3]: most tolerant to frequent exposure to rain or watering events
- 2,4D release rate, comparison [1]: the slowest of all

Compound: O=C([O-])COc1ccc(Cl)cc1Cl.O=C([O-])COc1ccc(Cl)cc1Cl.[Fe+2] [Fe(2,4D)2]
- solubility [4]: 1860 µg/mL
- 2,4D release rate, comparison [1]: releases more slowly than 2,4D

Compound: O=C([O-])COc1ccc(Cl)cc1Cl.[Na+] [Na(2,4D)]
- 2,4D release rate, comparison [1]: releases the fastest

Compound: O=[N+]([O-])c1ccc(O)cc1C(F)(F)F [TFM, 3-trifluoromethyl-4-nitrophenol]
- TFM release rate, order by paired base [5]: Mg(OH)2<Ca(OH)2<<<KOH

Compound: O=C([O-])C1C2CCC(O2)C1C(=O)[O-].[Cu+2] (stereo not drawn) [copper endothall salt]
- time for release of endothall portion [6]: ≤ 24 h
- time for release of endothall portion [7]: ≤ 24 h
